# Measured values from patent US20090325857A1, “USE OF OPIOID RECEPTOR ANTAGONISTS” (priority 2006, published 2009).
# Assays:
# Format in all cases: cell-based, human
# [1] = tested on: hair follicle melanocytes (HFM); test: Melanin content in hair follicle melanocytes (HFM); conditions: 4 days incubation, baseline = 100%
# Excerpt: Particularly, the activity of an agent in blocking an opioid receptor can be further determined by measuring the efficacy of the agent to cause a substantial increase of the total intracellular melanin production in human primary follicular melanocytes.
# The effect of opioid antagonists on melanin production in hair follicular melanocytes can be measured in a cell-based in vitro assay.
# (§1) Melanocytes are isolated and cultured from hair follicles derived from a normal adult scalp biopsy. Follicular melanocytes are passaged in T25 plastic culture flasks to maximum 4th to maximize in vivo-like behavior. Cells are seeded into flasks and after 2 days are incubated with test substances added to the cell growth medium. The experimental set-up includes flasks in which the cells are either not treated (control) or incubated for 4 days with the appropriate amount of opioid antagonists, to assess the effect on melanin production.
# (§2) After 4 days incubation, control and treated cells are collected and melanin is extracted from lysed cells. Melanin is quantified by measuring the spectrophotometric OD at 475 nm and calculating against a standardized curve. The resulting value is standardized against the number of cells counted per treatment and is given as micrograms of melanin per million cells.
# as §1, with “cultured either” for “cultured”, “follicles or epidermal skin” for “follicles”, “Follicular and epidermal” for “Follicular”
# as §2, with “million cells. As control known melanin production inducing references IBMX and full medium are used.” for “million cells.”
# [2] = tested on: hair follicle melanocytes; test: Proliferation of hair follicle melanocytes (direct cell counting, hemocytometry); conditions: hair follicle cells, baseline = 100%
# Protocol: as §1, with “cultured either” for “cultured”, “follicles or epidermal skin” for “follicles”, “Follicular and epidermal” for “Follicular”
# (§3) Furthermore, the hair follicle cells were analysed for their proliferation and dentricity. Proliferation has been assessed by direct cell counting using hemocytometry. Cell dendricity has been assessed by phase contrast microscopy with representative photo documentation. It can be seen that the opioate receptor antagonists also have an effect on the proliferation and dentricity further supporting the use of the opiate receptor antagonists for the prevention of the graying of hair and/or for restoration and/or maintenance of the natural hair color
# [3] = tested on: hair follicle melanocytes; test: Dendricity of hair follicle melanocytes (phase contrast microscopy); conditions: hair follicle cells, baseline = 100%
# Protocol: as §1, with “cultured either” for “cultured”, “follicles or epidermal skin” for “follicles”, “Follicular and epidermal” for “Follicular”
# as §3
# [4] = tested on: epidermal melanocytes (EM); test: Melanin content in epidermal melanocytes (EM); conditions: 4 days incubation, baseline = 100%
# Protocol: as §1, with “cultured either” for “cultured”, “follicles or epidermal skin” for “follicles”, “Follicular and epidermal” for “Follicular”
# as §2, with “million cells. As control known melanin production inducing references IBMX and full medium are used.” for “million cells.”
Compound,Melanin content in HFM ([1]; concentration not given),Proliferation of melanocytes ([2]; concentration not given),Dentricity ([3]; concentration not given),Melanin content in EM ([4]; 1 μM),Melanin content in EM ([4]; 100 μM),Melanin content in HFM ([1]; 1 μM),Melanin content in HFM ([1]; 100 μM),Proliferation of melanocytes ([2]; 1 μM),Dentricity ([3]; 1 μM),Dentricity ([3]; 100 μM)
CC(C)Cn1c(=O)n(C)c(=O)c2[nH]cnc21 [IBMX],140%,140%,148%,–,–,–,–,–,–,–
C=CCN1CC[C@]23c4c5ccc(O)c4O[C@H]2/C(=N/N=C2\CC[C@@]4(O)[C@H]6Cc7ccc(O)c8c7[C@@]4(CCN6CC=C)[C@H]2O8)CC[C@@]3(O)[C@H]1C5 [Naloxonazine],–,–,–,40%,25%,120%,242%,109%,105%,–
C=CCN1CC[C@]23c4c5ccc(O)c4O[C@H]2C(=O)CC[C@@]3(O)[C@H]1C5 [Naloxone],–,–,–,61%,54%,–,–,123%,110%,104%
"beta endorphin (YGGFMTSEKSQTPLVTLFKNAIIKNAYKKGE; Beta-endorphin; UniProt P01189 237-267, looked up) [μ-opiate agonist]",92%,–,–,–,–,–,–,–,–,–
